Measurements reported in US12371416B2, “Compounds for inhibition of fibroblast activation protein” (USTAV ORGANICKE CHEMIE A BIOCHEMIE AV CR, V. V. I., priority 2020, dated 2025).
Entries after “also recorded” stand apart in the source; their conditions may differ.

Assays:
PREP = target: T1, PREP (Homo sapiens, UniProt P48147); assay: Inhibitory activity against human recombinant PREP (IC50); type: biochemical; details: selected substances
T1 construct: purchased R&D Systems 4308-SE-010
T1 sequence (P48147 1-710): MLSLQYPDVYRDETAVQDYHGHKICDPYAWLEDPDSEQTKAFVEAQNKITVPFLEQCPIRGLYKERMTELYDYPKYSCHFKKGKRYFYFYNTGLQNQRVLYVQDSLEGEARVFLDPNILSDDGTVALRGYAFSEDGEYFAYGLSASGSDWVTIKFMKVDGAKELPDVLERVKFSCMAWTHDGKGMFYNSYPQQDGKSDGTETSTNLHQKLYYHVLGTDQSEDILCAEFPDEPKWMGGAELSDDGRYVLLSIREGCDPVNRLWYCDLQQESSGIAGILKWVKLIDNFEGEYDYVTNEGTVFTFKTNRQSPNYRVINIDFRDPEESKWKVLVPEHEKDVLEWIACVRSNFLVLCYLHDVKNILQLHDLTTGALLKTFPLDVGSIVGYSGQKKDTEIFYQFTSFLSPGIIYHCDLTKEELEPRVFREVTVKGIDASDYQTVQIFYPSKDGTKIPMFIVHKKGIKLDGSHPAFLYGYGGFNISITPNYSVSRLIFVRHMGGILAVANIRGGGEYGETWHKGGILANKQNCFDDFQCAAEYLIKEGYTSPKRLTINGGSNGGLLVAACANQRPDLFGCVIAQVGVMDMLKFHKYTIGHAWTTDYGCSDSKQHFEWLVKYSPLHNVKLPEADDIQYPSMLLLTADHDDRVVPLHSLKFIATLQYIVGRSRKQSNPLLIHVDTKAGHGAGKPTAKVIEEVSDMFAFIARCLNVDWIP
Protocol: (§1) Data were analysed by nonlinear regression with GraphPrism (version 8.3.1). The measurement results are given as values of the mean inhibitory concentration IC50 and its linearized form via the negative decimal logarithm of pIC50.

CCRF-CEM = assay: Cytotoxicity (XTT) on CCRF-CEM cells; type: cell-based, human; details: 72 h
Protocol: (§2) The cytotoxicity of the substances was measured on four tumour cell lines: CCRF-CEM, HepG2, Hela, HL-60. All cell lines were purchased from ATCC (Manassas, VA, USA). Cells were cultured in RPMI-1640 or DMEM medium containing 10% (wt/wt) FBS and 1% (wt/wt) GlutaMax. Cells were distributed at 2,000-10,000 per well of a 384-well plate (Thermo Fisher Scientific, Waltham, USA) and incubated overnight. After 24 hours, test substance solutions (10 or 100 μmol·l^−1) were added to the wells and the cells were incubated with the test substances at 37° C. and 5% (vol./vol.) CO2 for another 72 h. XTT dye (XTT cell proliferation kit II, Roche Diagnostics GmbH, Mannheim, Germany) was added to the wells according to the manufacturer's protocol. After one hour of incubation with the dye, the absorbance at 495 nm was measured and the signal was compared with the control (100% viability=cells without test substance).

HL-60 = assay: Cytotoxicity (XTT) on HL-60 cells; type: cell-based, human; details: 72 h
Protocol: as §2

Hela = assay: Cytotoxicity (XTT) on Hela cells; type: cell-based, human; details: 72 h
Protocol: as §2

HepG2 = assay: Cytotoxicity (XTT) on HepG2 cells; type: cell-based, human; details: 72 h
Protocol: as §2

DPPIV = target: T2, DPPIV (Homo sapiens, UniProt P27487); assay: Inhibitory activity against human recombinant DPPIV (IC50); type: biochemical; details: selected substances
T2 construct: purchased R&D Systems 9168-SE-010
T2 sequence (P27487 whole entry): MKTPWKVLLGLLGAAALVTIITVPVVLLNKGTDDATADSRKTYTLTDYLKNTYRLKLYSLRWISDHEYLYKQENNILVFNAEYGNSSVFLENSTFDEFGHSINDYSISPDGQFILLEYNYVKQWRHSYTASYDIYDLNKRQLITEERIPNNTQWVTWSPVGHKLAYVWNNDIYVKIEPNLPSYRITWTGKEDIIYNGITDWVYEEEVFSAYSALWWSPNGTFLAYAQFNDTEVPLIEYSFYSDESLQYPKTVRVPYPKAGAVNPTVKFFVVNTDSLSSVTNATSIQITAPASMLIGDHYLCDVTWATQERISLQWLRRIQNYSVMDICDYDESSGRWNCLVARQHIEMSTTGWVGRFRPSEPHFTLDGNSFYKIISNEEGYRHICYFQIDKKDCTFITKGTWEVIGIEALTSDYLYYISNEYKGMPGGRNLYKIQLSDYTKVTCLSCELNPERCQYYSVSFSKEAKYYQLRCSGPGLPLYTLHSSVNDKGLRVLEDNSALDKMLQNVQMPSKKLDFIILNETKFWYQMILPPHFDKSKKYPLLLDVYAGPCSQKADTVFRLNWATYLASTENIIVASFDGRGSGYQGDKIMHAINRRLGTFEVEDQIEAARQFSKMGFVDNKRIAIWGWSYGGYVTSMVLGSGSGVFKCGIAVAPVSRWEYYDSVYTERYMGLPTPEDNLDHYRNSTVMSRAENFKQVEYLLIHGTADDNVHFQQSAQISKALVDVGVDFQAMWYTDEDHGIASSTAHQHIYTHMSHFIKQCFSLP
Protocol: as §1

[1] = Stability in human plasma; type: in vitro ADME; details: 37° C.; for Stability in human plasma: up to 120 minutes
Protocol: (§3) An aliquot of plasma was extracted with 120 μl of methanol containing caffeine as an internal standard. The solution was vortexed (5 min) and centrifuged (20500 g; 10 min), the supernatant was transferred to a vial, and 1 μl of the mixture was used for LC-MS analysis. […] Results are presented as the percentage of test substance versus control (aliquot taken at time 0).

[2] = Stability in murine plasma; type: in vitro ADME; details: 37° C.; for Stability in murine plasma: up to 120 minutes
Protocol: as §3

[3] = Stability in murine microsomes; type: in vitro ADME; details: for Stability in murine microsomes: murine microsomes 0.5 mg/ml, 5 μmol·l^−1 test substance, NADPH
Protocol: The incubation of 37.5 μl of the mixture was terminated by the addition of 150 μl of acetonitrile containing caffeine as an internal standard, cooled to 0° C. The mixture was vortexed (5 min) and centrifuged (20500 g; 10 min). The supernatant was transferred to a vial, and 1 μl of the mixture was used for LC-MS analysis. […] Results are presented as the percentage of test substance versus control (aliquot taken at time 0).

[4] = test system: four human tumour cell lines; assay: Cytotoxicity on four human tumour cell lines (summary statement); type: cell-based; details: two concentrations differing by 1 order of magnitude
Protocol: as §2

| Structure (SMILES) | IC50 (PREP) [nM] | Cell viability CEM 10 μM (CCRF-CEM) [% vs. control] | Cell viability CEM 100 μM (CCRF-CEM) [% vs. control] | Cell viability HL60 10 μM (HL-60) [% vs. control] | Cell viability HL60 100 μM (HL-60) [% vs. control] | Cell viability HeLa S3 10 μM (Hela) [% vs. control] | Cell viability HeLa S3 100 μM (Hela) [% vs. control] | Cell viability HepG2 10 μM (HepG2) [% vs. control] | Cell viability HepG2 100 μM (HepG2) [% vs. control] | IC50 (DPPIV) [nM] | Stability in human plasma [1] | Stability in murine plasma [2] | Stability in murine microsomes [3] | Cytotoxicity [4] | substance degraded within 120 minutes ([1]; 120 minutes) [%] | substance degraded within 20 minutes [2] [%] | substance degraded within 20 minutes ([3]; murine microsomes, 20 minutes) [%] |
| --- | --- | --- | --- | --- | --- | --- | --- | --- | --- | --- | --- | --- | --- | --- | --- | --- | --- |
| COC(=O)[C@H](CCCCNC(=O)OCc1ccccc1)NC(=O)CNC(=O)C(=O)[C@@H]1CCCN1C(=O)CNC(=O)c1ccnc2ccccc12 [Compound 5i] | 0.26 | 107 | 107 | 104 | 101 | 94 | 98 | 89 | 101 | – | – | – | – | – | – | – | – |
| CCCCCNC(=O)C(=O)[C@@H]1CCCN1C(=O)CNC(=O)c1ccnc2ccccc12 [Compound 3j, (S)—N-(2-Oxo-2-(2-(2-oxo-2-(pentylamino)acetyl)pyrrolidin-1-yl)ethyl)quinoline-4-carboxamide] | 0.4 | 94 | 119 | 109 | 123 | 93 | 109 | 76 | 124 | > 4000 | – | – | – | – | – | – | – |
| COc1ccc(CNC(=O)C(=O)[C@@H]2CCCN2C(=O)CNC(=O)c2ccnc3ccccc23)cc1OC [Compound 3b, (S)—N-(2-(2-(2-((3,4-Dimethoxybenzyl)amino)-2-oxoacetyl)pyrrolidin-1-yl)-2-oxoethyl)quinoline-4-carboxamide] | 0.4 | 106 | 88 | 88 | 100 | 106 | 78 | 97 | 92 | > 4000 | stable; also recorded: excellent stability | stable; also recorded: high stability | stable; also recorded: high stability | low cytotoxicity | – | – | – |
| COc1ccc(CCNC(=O)C(=O)[C@@H]2CCCN2C(=O)CNC(=O)c2ccnc3ccccc23)cc1OC [Compound 3e, (S)—N-(2-(2-(2-((3,4-Dimethoxyphenethyl)amino)-2-oxoacetyl)pyrrolidin-1-yl)-2-oxoethyl)quinoline-4-carboxamide] | 0.5 | 108 | 85 | 101 | 106 | 104 | 86 | 92 | 90 | > 4000 | stable | stable | partially stable | – | – | – | – |
| O=C(NCc1ccccc1)C(=O)[C@@H]1CCCN1C(=O)CNC(=O)c1ccnc2ccccc12 [Compound 3a, (S)—N-(2-(2-(2-(Benzylamino)-2-oxoacetyl)pyrrolidin-1-yl)-2-oxoethyl)quinoline-4-carboxamide] | – | 105 | 94 | 94 | 106 | 119 | 96 | 103 | 107 | – | stable | stable | stable | – | – | – | – |
| COC(=O)[C@H](Cc1ccccc1)NC(=O)CNC(=O)C(=O)[C@@H]1CCCN1C(=O)CNC(=O)c1ccnc2ccccc12 [Compound 5f, Methyl (2-oxo-2-((S)-1-((quinoline-4-carbonyl)glycyl)pyrrolidin-2-yl)acetyl)glycyl-L-phenylalaninate] | 0.3 | 98 | 72 | 114 | 98 | 96 | 100 | 78 | 121 | – | stable | degrade immediately | partially stable | – | 25 | 100 | – |
| CC(C)(C)OC(=O)CNC(=O)C(=O)[C@@H]1CCCN1C(=O)CNC(=O)c1ccnc2ccccc12 [Compound 3l, tert-Butyl (S)-(2-oxo-2-(1-((quinoline-4-carbonyl)glycyl)pyrrolidin-2-yl)acetyl)glycinate] | 0.6 | 104 | 121 | 104 | 111 | 95 | 100 | 97 | 109 | > 4000 | – | – | – | – | – | – | – |
| COC(=O)[C@H](CCC(=O)OCc1ccccc1)NC(=O)CNC(=O)C(=O)[C@@H]1CCCN1C(=O)CNC(=O)c1ccnc2ccccc12 [Compound 5h, 5-Benzyl 1-methyl (2-oxo-2-((S)-1-((quinoline-4-carbonyl)glycyl)pyrrolidin-2-yl)acetyl)glycyl-L-glutamate] | – | 114 | 103 | 109 | 106 | 116 | 93 | 112 | 105 | – | stable | degrade immediately | unstable | – | – | 100 | 100 |
